Experimental findings from patent publication US20240000707A1, “INHALABLE DRY POWDER FORMULATIONS COMPRISING ANGIOGENESIS INHIBITORS” (Lonza Bend Inc., priority 2020, published 2024) are described below.

For the assay, the system named is NSCLC cell line Calu-3. Kind of assay: Orthotopic nude rat model for lung cancer, inhaled vs IP bevacizumab, primary and maintenance treatment. It is filed as in vivo. The following applies: week 8; INH 1.5 mg/kg deposited vs IP 15 mg/kg; cisplatin IP 3 mg/kg. The method, then: NSCLC cell line Calu-3 was instilled into the lungs of X-irradiated rats by an intratracheal route, targeting […] cells per installation. For the first four weeks of the study, no treatment was administered, allowing growth of the tumor cells. Inhaled bevacizumab SDD was evaluated as a primary treatment as well as a maintenance therapy.
Cisplatin was administered by IP at 3 mg/kg. Powder was aerosolized using a rotating brush generator and delivered to the rats passively through nasal inhalation. […] Groups 1-4 were evaluated for primary efficacy after 8 weeks with lung weight as the end point. Groups 5-7 were evaluated for maintenance efficacy after 12 weeks with lung weight and survival as the end point.

For Bevacizumab [IP bevacizumab], the “tumor burden, co-administered with cisplatin, inhaled vs IP bevacizumab” value was “indistinguishable, and significantly lower than group 1 and 3”.
